Reference: the supplement of paper PMC10307832

Key:
Test in all cases: relative viability (nuclei count vs DMSO), 5 days (fraction); higher = more cells survive
[1] = test system: EMC-BAC-2
Method in brief: (§1)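 Relative viability is defined as nuclei in treated wells over nuclei in vehicle wells. Duplicate plates were run and medians reported. Lung cancer cell lines in 1536-well plates were dosed by pin tool one day after seeding, with one drug or with a fixed anchor-drug dose plus five library-drug doses (not always all listed) in √10 steps, and nuclei were counted after 5 days.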

[2] = test system: LK-2
Method in brief: as §1

[3] = test system: NCI-H1755
Method in brief: as §1

[4] = test system: HCC-366
Method in brief: as §1

[5] = test system: NCI-H1437
Method in brief: as §1

[6] = test system: NCI-H596
Method in brief: as §1

[7] = test system: NCI-H1734
Method in brief: as §1

[8] = test system: ABC-1
Method in brief: as §1

[9] = test system: NCI-H3122
Method in brief: as §1

[10] = test system: RERF-LC-KJ
Method in brief: as §1

[11] = test system: NCI-H441
Method in brief: as §1

[12] = test system: CAL-12T
Method in brief: as §1

[13] = test system: UMC-11
Method in brief: as §1

[14] = test system: SK-LU-1
Method in brief: as §1

[15] = test system: NCI-H1651
Method in brief: as §1

[16] = test system: PC-3 [JPC-3]
Method in brief: as §1

[17] = test system: HOP-62
Method in brief: as §1

[18] = test system: COR-L23
Method in brief: as §1

[19] = test system: NCI-H2347
Method in brief: as §1

[20] = test system: NCI-H727
Method in brief: as §1

[21] = test system: HARA
Method in brief: as §1

[22] = test system: NCI-H1563
Method in brief: as §1

Compound: Cc1csc(=NC2CCCCC2)n1/N=C/c1ccc(O)c(O)c1O [MIM1] + Cc1nc(NC(=O)N2CCC[C@H]2C(N)=O)sc1-c1ccnc(C(C)(C)C(F)(F)F)c1 [Alpelisib] (partner 2 µM)
- relative viability ([1]; first compound 0.2 µM): 0.718
- relative viability ([1]; first compound 0.6325 µM): 0.771
- relative viability ([1]; first compound 2 µM): 0.745
- relative viability ([1]; first compound 6.325 µM): 0.682
- relative viability ([1]; first compound 20 µM): 0.404
- relative viability ([2]; first compound 0.2 µM): 0.958
- relative viability ([2]; first compound 0.6325 µM): 1.04
- relative viability ([2]; first compound 6.325 µM): 0.963
- relative viability ([2]; first compound 20 µM): 0.374
- relative viability ([3]; first compound 0.2 µM): 0.93
- relative viability ([3]; first compound 0.6325 µM): 0.953
- relative viability ([3]; first compound 2 µM): 0.961
- relative viability ([3]; first compound 6.325 µM): 0.72
- relative viability ([3]; first compound 20 µM): 0.207
- relative viability ([4]; first compound 0.2 µM): 0.37
- relative viability ([4]; first compound 0.6325 µM): 0.37
- relative viability ([4]; first compound 2 µM): 0.335
- relative viability ([4]; first compound 6.325 µM): 0.308
- relative viability ([4]; first compound 20 µM): 0.0363
- relative viability ([5]; first compound 0.2 µM): 0.843
- relative viability ([5]; first compound 0.6325 µM): 0.935
- relative viability ([5]; first compound 2 µM): 0.959
- relative viability ([5]; first compound 6.325 µM): 0.592
- relative viability ([5]; first compound 20 µM): 0.289
- relative viability ([6]; first compound 0.2 µM): 0.491
- relative viability ([6]; first compound 0.6325 µM): 0.501
- relative viability ([6]; first compound 2 µM): 0.525
- relative viability ([6]; first compound 6.325 µM): 0.497
- relative viability ([6]; first compound 20 µM): 0.48
- relative viability ([7]; first compound 0.2 µM): 0.738
- relative viability ([7]; first compound 0.6325 µM): 0.655
- relative viability ([7]; first compound 2 µM): 0.696
- relative viability ([7]; first compound 6.325 µM): 0.655
- relative viability ([7]; first compound 20 µM): 0.38
- relative viability ([8]; first compound 0.2 µM): 1.02
- relative viability ([8]; first compound 0.6325 µM): 1.05
- relative viability ([8]; first compound 2 µM): 0.913
- relative viability ([8]; first compound 6.325 µM): 0.816
- relative viability ([8]; first compound 20 µM): 0.322
- relative viability ([9]; first compound 0.2 µM): 0.825
- relative viability ([9]; first compound 0.6325 µM): 0.833
- relative viability ([9]; first compound 2 µM): 0.881
- relative viability ([9]; first compound 6.325 µM): 0.644
- relative viability ([9]; first compound 20 µM): 0.249
- relative viability ([10]; first compound 0.2 µM): 0.802
- relative viability ([10]; first compound 0.6325 µM): 0.801
- relative viability ([10]; first compound 2 µM): 0.704
- relative viability ([10]; first compound 6.325 µM): 0.668
- relative viability ([10]; first compound 20 µM): 0.213
- relative viability ([11]; first compound 0.2 µM): 0.75
- relative viability ([11]; first compound 0.6325 µM): 0.63
- relative viability ([11]; first compound 2 µM): 0.655
- relative viability ([11]; first compound 6.325 µM): 0.594
- relative viability ([11]; first compound 20 µM): 0.187
- relative viability ([12]; first compound 0.2 µM): 1.14
- relative viability ([12]; first compound 0.6325 µM): 1.36
- relative viability ([12]; first compound 2 µM): 1.24
- relative viability ([12]; first compound 6.325 µM): 0.997
- relative viability ([12]; first compound 20 µM): 0.973
- relative viability ([13]; first compound 0.2 µM): 0.952
- relative viability ([13]; first compound 0.6325 µM): 1.04
- relative viability ([13]; first compound 2 µM): 0.962
- relative viability ([13]; first compound 6.325 µM): 0.69
- relative viability ([13]; first compound 20 µM): 0.224
- relative viability ([14]; first compound 0.2 µM): 1
- relative viability ([14]; first compound 0.6325 µM): 1.06
- relative viability ([14]; first compound 2 µM): 1.26
- relative viability ([14]; first compound 6.325 µM): 0.87
- relative viability ([14]; first compound 20 µM): 0.715
- relative viability ([15]; first compound 0.2 µM): 0.927
- relative viability ([15]; first compound 0.6325 µM): 0.974
- relative viability ([15]; first compound 2 µM): 0.921
- relative viability ([15]; first compound 6.325 µM): 0.793
- relative viability ([15]; first compound 20 µM): 0.936
- relative viability ([16]; first compound 0.2 µM): 1.06
- relative viability ([16]; first compound 0.6325 µM): 1.03
- relative viability ([16]; first compound 2 µM): 1.02
- relative viability ([16]; first compound 6.325 µM): 0.884
- relative viability ([16]; first compound 20 µM): 0.716
- relative viability ([17]; first compound 0.2 µM): 0.785
- relative viability ([17]; first compound 0.6325 µM): 0.958
- relative viability ([17]; first compound 2 µM): 0.608
- relative viability ([17]; first compound 6.325 µM): 1.03
- relative viability ([17]; first compound 20 µM): 0.24
- relative viability ([18]; first compound 0.2 µM): 0.725
- relative viability ([18]; first compound 0.6325 µM): 0.809
- relative viability ([18]; first compound 2 µM): 0.537
- relative viability ([18]; first compound 6.325 µM): 0.558
- relative viability ([18]; first compound 20 µM): 0.457
- relative viability ([19]; first compound 0.2 µM): 1.03
- relative viability ([19]; first compound 0.6325 µM): 1.02
- relative viability ([19]; first compound 2 µM): 1.13
- relative viability ([19]; first compound 6.325 µM): 0.728
- relative viability ([19]; first compound 20 µM): 0.534
- relative viability ([20]; first compound 0.2 µM): 0.595
- relative viability ([20]; first compound 0.6325 µM): 0.614
- relative viability ([20]; first compound 2 µM): 0.534
- relative viability ([20]; first compound 6.325 µM): 0.482
- relative viability ([20]; first compound 20 µM): 0.397
- relative viability ([21]; first compound 0.2 µM): 0.887
- relative viability ([21]; first compound 0.6325 µM): 0.857
- relative viability ([21]; first compound 2 µM): 0.878
- relative viability ([21]; first compound 6.325 µM): 0.361
- relative viability ([21]; first compound 20 µM): 0.165
- relative viability ([22]; first compound 0.2 µM): 0.95
- relative viability ([22]; first compound 0.6325 µM): 1.04
- relative viability ([22]; first compound 2 µM): 0.873
- relative viability ([22]; first compound 6.325 µM): 0.802
- relative viability ([22]; first compound 20 µM): 0.657
